Patent US8980848B2, “Flavonoid dimers and their use” (The Hong Kong Polytechnic University, priority 2010, dated 2015)
Like-named read-outs stand apart in the source and are kept apart here.

Columns and labels:
[1] = test system: LdAG83PentR50 promastigotes (pentamidine-resistant); experiment: microbe, parasite or virus in culture; format: cell-based, Leishmania donovani; settings: read-out: Anti-promastigotes activity (IC50, μM) LdAG83PentR50
Protocol: (§1) Cell Lines and Cell Culture. Promastigotes of Leishmania donovani (wild type LdAG83, pentamidine-resistant LdAG83-PentR50, and SSG-resistant Ld39) and Leishmania major [MHOM/IL/67/JERICHO II (Lm50122), from ATCC] were used in this study.
No pentamidine or sodium stibogluconate was added to the L. donovani wild type (LdAG83) and L. major wild type (Lm50122). The mouse macrophage cell line, Raw264.7, was used for the determination of the relative toxicity of the compounds of the invention. […] They were maintained at 37° C. in a humidified atmosphere with 5% CO2. The cells were split constantly after a confluent monolayer has been formed. To split cells, the plate was washed briefly with PBS, treated with 0.05% trypsin-EDTA and harvested by centrifugation.
(§2) In Vitro Anti-Promastigote Activity. The viability of promastigotes was determined by the Cell Titer 96° Aqueous Assay (Promega) that employs a tetrazolium compound (MTS, 2-(4,5-Dimethylthiazol-2-yl-)-5-[3-(carboxymethoxy)phenyl]-2-(4-sulfophenyl)-2H-tetrazolium) and electron coupling reagent, phenazine methosulfate (PMS).^7 Promastigotes were seeded into 96-well flat bottom microtiter plate at 1×10^5 cells per well in a final volume of 100 μL medium and incubated with a series concentration of synthetic flavonoid dimers or known antileishmanials. The parasites were incubated at 27° C. for 72 hrs. Fresh solution of 2 mg/mL MTS and 0.92 mg/mL PMS were prepared in a ratio of 20:1 (MTS:PMS). After 72 hrs incubation, 10 μL of MTS:PMS mixture was added into each well of microtiter plate. The plate was then incubated at 27° C. for 4 hrs for color development. After 4 hrs incubation, the OD values were determined at 490 nm using automatic microtiter plate reader (Bio-Rad).

[2] = test system: LdAG83 promastigotes (wild type); experiment: In vitro anti-promastigote activity, LdAG83; format: cell-based, Leishmania donovani; settings: read-out: Anti-promastigotes activity (IC50, μM) LdAG83
Method in brief: (§3)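 L. donovani (LdAG83 wild type, SSG-resistant Ld39) and L. major Lm50122 promastigotes were seeded at 1×10^5 per well with a concentration series of compound.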

[3] = test system: Ld39 promastigotes (SSG-resistant); experiment: In vitro anti-promastigote activity, Ld39; format: cell-based, Leishmania donovani; settings: read-out: Anti-promastigotes activity (IC50, μM) Ld39
Method in brief: as §3

[4] = biological target: Pgp (LCC6MDR cells) (Homo sapiens, UniProt P08183); experiment: Cell proliferation assay: Pgp-modulating activity, reversal of anticancer drug resistance in LCC6MDR cells; settings: for RF (Relative Fold), cpd at 0.5 μM: RF = (IC50 without modulator)/(IC50 with 0.5 μM modulator), paclitaxel
Protocol: Cell Proliferation Assay. 6,000 cells of LCC6 or LCC6MDR and anticancer drugs (paclitaxel, vinblastine, vincristine, doxorubicin and mitoxantrone) were mixed with or without modulators to a final volume of 200 μL in each well of 96-well plates. […] The plates were then incubated for 5 days at 37° C. […] IC50 values were calculated from the dose-response curves of MTS assays (Prism 4.0).

[5] = test system: Raw264.7 cells; experiment: Cytotoxicity, mouse macrophage Raw264.7; format: cell-based
Method in brief: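 Raw264.7 (1×10^4 cells/well) and primary PEM cells (2×10^4 cells/well) in supplemented DMEM received graded compound doses and were incubated 72 h at 37 °C, 5% CO2. Percent survivors determined; cytotoxicity IC50 used for therapeutic index against antileishmanial IC50.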

[6] = Tumor cell line cytotoxicity of flavonoid dimers, LCC6MDR; format: cell-based, human; settings: human, LCC6MDR cells, IC50 of compound alone
Method in brief: (§4)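 LCC6, LCC6MDR and L929 cells seeded at 1×10^4 cells/well and exposed to graded doses of flavonoid dimers. Incubation 72 hrs at 37° C., 5% CO2. Read-out: % survivors.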

[7] = Cytotoxicity over LCC6, LCC6MDR and L929 cell lines; format: cell-based, human, mouse; settings: human; cancer lines LCC6, LCC6MDR and/or L929
Protocol: (b) Tumor Cell Line Cytotoxicity. The tumor cytotoxicity assays of flavonoid dimers were performed against LCC6, LCC6MDR and L929 cell lines. The cells were grown in supplemented DMEM media in an atmosphere of 95% air and 5% CO2 at 37° C. In brief, LCC6, LCC6MDR and L929 cells were seeded into 96-well flat bottom microtiter plate at 1×10^4 cells per well in a final volume of 100 μL media, respectively. A graded dose of flavonoid dimers was added into wells. The plate was incubated at 37° C. for 72 hrs at the atmosphere 5% CO2 in the air. The % of survivors was determined.

[8] = Tumor cell line cytotoxicity of flavonoid dimers, LCC6; format: cell-based, human; settings: human, LCC6 cells, IC50 of compound alone
Method in brief: as §4

[9] = test system: L929 cells; experiment: Cytotoxicity of flavonoid dimers, L929 mouse fibroblast; format: cell-based
Method in brief: as §4

[10] = as above; format: cell-based; settings: mouse, L929 fibroblast cells, IC50 of compound alone, 72 hrs, mouse fibroblast
Method in brief: as §4

[11] = test system: Ld39 amastigotes; experiment: In vitro anti-amastigote activity, Ld39 amastigotes in mouse PEM; settings: for IC50: Leishmania donovani, in Mus musculus
Protocol: Peritoneal elicited macrophages (PEM) from mouse were obtained as previously described. A round cover slip (12 mm in diameter) was placed into each well of 24-well culture plate. Mouse macrophages were resuspended in supplemented DMEM media containing 10% heat inactivated fetal bovine serum (v/v), 100 U/mL penicillin and 100 μg/mL streptomycin and seeded into each well at a cell density of 1×10^5 cells per 500 μL. Macrophages were allowed to attach overnight and the non-adherent cells were removed by gentle washing twice with unsupplemented DMEM media. […] Non-internalized promastigotes were removed by washing with unsupplemented DMEM media for two times. Infected macrophages were further incubated in 500 μL supplemented DMEM media in the presence or absence of flavonoid dimers or known antileishmanials for 72 hrs at 37° C. After incubation, the cover slips were stained with Giemsa and the amastigotes inside each macrophage (100 macrophages per treatment) were counted under microscope. The percentage of macrophages infected and number of amastigotes per 100 macrophages was enumerated.
The % of infected macrophage and the number of amastigotes per 100 macrophages were counted by staining with Giemsa.

[12] = test system: Lm50122 promastigotes; experiment: In vitro anti-promastigote activity, Lm50122; format: cell-based, Leishmania major; settings: Leishmania major, 72 h, read-out: Anti-promastigotes activity (IC50, μM) Lm50122
Protocol: as §1, §2

[13] = test system: PEM cells; experiment: Cytotoxicity, primary mouse peritoneal elicited macrophage (PEM); format: cell-based
Protocol: (a) Mouse Macrophage Raw 264.7 and Primary Mouse PEM Cells. The cytotoxicity assay of reference antileishmanial compounds and the compounds of this invention was performed against mouse macrophage cell line, Raw 264.7 and primary mouse PEM cells in order to calculate the therapeutic index (IC50 value for cytotoxicity of the compounds divided by IC50 value for antileishmanial activity of the compounds). The cells were grown in supplemented DMEM media in an atmosphere of 95% air with 5% CO2 at 37° C. In brief, Raw264.7 cells and PEM cells were seeded into 96-well flat bottom microtiter plate at 1×10^4cells and 2×10^4 cells per well in a final volume of 100 μL media, respectively. A graded dose of flavonoid dimers or antileishmanials was added into wells. The plate was incubated at 37° C. for 72 hrs at the atmosphere 5% CO2 in the air. The % of survivors was determined.

[14] = test system: Leishmania promastigotes; experiment: Anti-promastigote activity over the Leishmania strains; format: cell-based, Leishmania donovani, Leishmania major; settings: for IC50: different Leishmania strains, read-out: Anti-promastigote IC50, range over strains
Protocol: as §1, §2

[15] = test system: LCC6MDR cells; experiment: Tumor cell line cytotoxicity of flavonoid dimers, LCC6MDR; format: cell-based, human; settings: IC50 of compound alone, 72 hrs
Method in brief: as §4

[16] = test system: LCC6 cells; experiment: Tumor cell line cytotoxicity of flavonoid dimers, LCC6; format: cell-based, human; settings: IC50 of compound alone, 72 hrs
Method in brief: as §4

[17] = 72 h, read-out: Ld39 (IC50, mM)
[18] = Mus musculus, Macrophage, Table 7, cytotoxicity
[19] = cytotoxicity, primary mouse macrophage, 72 hrs
[20] = Leishmania donovani, 72 h, 3 days at 27° C., MTS

Chain of Pgp (LCC6MDR cells) (P08183 whole entry): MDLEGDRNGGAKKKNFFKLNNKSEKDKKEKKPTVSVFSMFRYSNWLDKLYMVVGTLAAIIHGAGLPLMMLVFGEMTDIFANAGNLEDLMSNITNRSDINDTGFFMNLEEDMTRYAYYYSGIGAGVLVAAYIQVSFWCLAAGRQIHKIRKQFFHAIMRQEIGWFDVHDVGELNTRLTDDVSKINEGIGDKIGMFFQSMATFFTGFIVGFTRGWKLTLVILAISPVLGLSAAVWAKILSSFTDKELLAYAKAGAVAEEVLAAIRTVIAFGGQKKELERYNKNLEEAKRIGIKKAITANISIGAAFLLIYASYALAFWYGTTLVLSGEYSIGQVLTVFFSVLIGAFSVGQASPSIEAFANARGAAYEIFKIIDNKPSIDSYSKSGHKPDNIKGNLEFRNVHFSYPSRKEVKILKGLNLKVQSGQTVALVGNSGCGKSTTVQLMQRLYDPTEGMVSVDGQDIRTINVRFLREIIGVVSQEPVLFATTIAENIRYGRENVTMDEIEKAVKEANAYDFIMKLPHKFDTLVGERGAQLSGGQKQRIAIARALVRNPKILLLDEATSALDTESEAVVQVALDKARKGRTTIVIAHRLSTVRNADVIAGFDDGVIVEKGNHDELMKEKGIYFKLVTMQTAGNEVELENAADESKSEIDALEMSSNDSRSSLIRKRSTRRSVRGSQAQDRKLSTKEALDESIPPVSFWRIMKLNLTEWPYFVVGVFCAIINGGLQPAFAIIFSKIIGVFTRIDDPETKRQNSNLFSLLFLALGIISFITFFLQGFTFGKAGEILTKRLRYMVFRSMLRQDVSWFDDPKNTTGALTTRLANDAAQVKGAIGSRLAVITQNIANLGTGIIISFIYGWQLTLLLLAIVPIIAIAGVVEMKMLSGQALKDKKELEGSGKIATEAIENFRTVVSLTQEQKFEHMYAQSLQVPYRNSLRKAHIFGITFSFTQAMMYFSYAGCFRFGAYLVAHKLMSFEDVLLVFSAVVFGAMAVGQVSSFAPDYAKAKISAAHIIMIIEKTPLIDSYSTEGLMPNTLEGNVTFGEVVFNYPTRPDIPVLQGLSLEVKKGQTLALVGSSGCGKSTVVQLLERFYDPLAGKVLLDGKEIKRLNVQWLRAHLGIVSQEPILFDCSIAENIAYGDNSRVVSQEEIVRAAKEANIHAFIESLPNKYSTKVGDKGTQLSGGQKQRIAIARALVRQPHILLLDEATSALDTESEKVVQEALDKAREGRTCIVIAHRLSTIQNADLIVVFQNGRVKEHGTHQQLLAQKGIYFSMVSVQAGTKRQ

CC(C)(C)OC(=O)N(CCOCCOc1ccc(-c2cc(=O)c3ccccc3o2)cc1)CCOCCOc1ccc(-c2cc(=O)c3ccccc3o2)cc1 [Compound 16a, 1,13-Bis[4′-(4H-chromen-4-on-2-yl)phenyl]-N-(tert-butyloxycarbonyl)-1,4,10,13-tetraoxa-7-azamidecane]
IC50 ([1]; Leishmania donovani, 72 h): 1.1 µM | IC50 ([2]; Leishmania donovani, 72 h): 3.2 µM | IC50 ([3]; Leishmania donovani, 72 h): 1.6 µM | Ability to restore paclitaxel sensitivity, fold higher than verapamil ([4]; 1.0 μM, LCC6MDR): 24 fold | EC50 ([4]; EC50 of compounds for reversing anticancer drug resistance (nM), Paclitaxel, LCC6MDR): 320 ± 40 nM | Therapeutic index ([4]; IC50 of compounds for L929/EC50 of compounds for lowering paclitaxel drug resistance): 34.7 | RF (Relative Fold), cpd at 0.5 μM ([4]; LCC6MDR): (11.1) | IC50 ([5]; Mus musculus, RAW264.7, 72 h): > 100 µM | IC50 at 72 h [6]: 6.2 ± 0.8 µM | IC50 at 72 h [7]: < 8 µM | IC50 at 72 h [8]: 8 ± 2.5 µM | IC50 ([9]; IC50 of compound alone, 72 hrs, mouse fibroblast, read-out: Cytotoxicity (μM) L929): 11.1 µM | IC50 at 72 h [10]: < 11.1 µM

O=c1cc(-c2ccc(OCCOCCN(CCOCCOc3ccc(-c4cc(=O)c5ccccc5o4)cc3)Cc3ccncc3)cc2)oc2ccccc12 [Compound 21, 1,13-Bis[4′-(4H-chromen-4-on-2-yl)phenyl]-N-(4-pyridylmethyl)-1,4,10,13-tetraoxa-7-azamidecane]
% of macrophage infected ([11]; 5 μM, solvent control 100%): 20% | Number of amastigotes per 100 macrophages ([11]; 5 μM, solvent control 887): 48 | IC50 [11, 17]: 0.00063 ± 0.00012 mM | IC50 ([11]; read-out: IC50 against Ld39 amastigotes): 0.00063 mM | IC50 ([1]; Leishmania donovani, 72 h): 0.13 ± 0.04 µM | IC50 ([2]; Leishmania donovani, 72 h): 0.18 ± 0.02 µM | IC50 ([3]; Leishmania donovani, 72 h): 0.19 ± 0.03 µM | IC50 [12]: 0.35 ± 0.07 µM | IC50 [13, 18]: > 88 µM | IC50 [13, 19]: > 88 µM | RF (Relative Fold), cpd at 0.5 μM ([4]; LCC6MDR): (6.9) | IC50 ([5]; Mus musculus, RAW264.7, 72 h): > 100 µM | IC50 at 72 h [6]: > 100 µM | IC50 at 72 h [8]: > 100 µM | IC50 at 72 h [10]: 26.4 ± 2.7 µM | Fold lower anti L. donovani promastigote activity than amphotericin B ([14]; L. donovani): 2 fold | IC50 [14]: 0.13 to 0.35 µM

O=C(O)CCC(=O)N(CCOCCOc1ccc(-c2cc(=O)c3ccccc3o2)cc1)CCOCCOc1ccc(-c2cc(=O)c3ccccc3o2)cc1 [Compound 23a, 1,13-Bis[4′-(4H-chromen-4-on-2-yl)phenyl]-N-(4-hydroxy-1,4-dioxobutyl)-1,4,10,13-tetraoxa-7-azamidecane]
IC50 ([1]; 3 days at 27° C., MTS): 27 µM | IC50 ([2]; 3 days at 27° C., MTS): > 100 µM | IC50 ([3]; 3 days at 27° C., MTS): > 100 µM | RF (Relative Fold), cpd at 0.5 μM ([4]; LCC6MDR): (1.1) | IC50 ([5]; 72 hrs): 65 µM | IC50 [15]: > 100 µM | IC50 [16]: 78.4 ± 8.1 µM

Cc1ccc(S(=O)(=O)N(CCOCCOc2ccc(-c3cc(=O)c4ccccc4o3)cc2)CCOCCOc2ccc(-c3cc(=O)c4ccccc4o3)cc2)cc1 [Compound 25a, 1,13-Bis[4′-(4H-chromen-4-on-2-yl)phenyl]-N-(4-methylbenzenesulfonyl)-1,4,10,13-tetraoxa-7-azamidecane]
IC50 ([2]; 3 days at 27° C., MTS): 100 µM | IC50 ([3]; 3 days at 27° C., MTS): > 100 µM | RF (Relative Fold), cpd at 0.5 μM ([4]; LCC6MDR): (5.8) | IC50 ([5]; 72 hrs): > 100 µM | IC50 [15]: > 100 µM | IC50 [16]: > 100 µM | IC50 [9]: > 100 µM

CCCCCCCCCCCCCCCCOP(=O)([O-])OCC[N+](C)(C)C [Miltefosine, reference compound]
IC50 [11, 17]: 0.016 ± 0.0064 mM | IC50 ([1]; Leishmania donovani, 72 h): 9.3 ± 2.4 µM | IC50 [3, 20]: 17.3 ± 2.1 µM | IC50 ([12]; 3 days at 27° C., MTS): 9.8 ± 2.3 µM | IC50 [13, 18]: 75.3 ± 9.4 µM | IC50 [13, 19]: 75.3 ± 9.4 µM | IC50 ([5]; Mus musculus, RAW264.7, 72 h): 20 µM | IC50 [14]: 4.3 to 17.3 µM

NC[C@@H]1O[C@H](O[C@H]2[C@@H](O)[C@H](O[C@@H]3[C@@H](O)[C@H](N)C[C@H](N)[C@H]3O[C@H]3O[C@H](CO)[C@@H](O)[C@H](O)[C@H]3N)O[C@@H]2CO)[C@H](N)[C@@H](O)[C@@H]1O [Paromomycin, paromomycin, reference compound]
IC50 [11, 17]: 0.041 mM | IC50 ([1]; Leishmania donovani, 72 h): 85.5 ± 13.5 µM | IC50 [2, 20]: 62.6 ± 9.5 µM | IC50 [3, 20]: 24.5 ± 2.4 µM | IC50 ([12]; 3 days at 27° C., MTS): 94.5 ± 5.5 µM | IC50 [13, 18]: > 100 µM | IC50 [13, 19]: > 100 µM | IC50 ([5]; Mus musculus, RAW264.7, 72 h): > 100 µM | IC50 [14]: 24.5 to 94.5 µM

N=C(N)c1ccc(OCCCCCOc2ccc(C(=N)N)cc2)cc1 [Pentamidine, reference compound]
IC50 [11, 17]: > 0.03 mM | IC50 ([1]; Leishmania donovani, 72 h): 74.7 µM | IC50 [2, 20]: 16.2 µM | IC50 [3, 20]: 5.3 ± 0.8 µM | IC50 ([12]; 3 days at 27° C., MTS): 7.7 ± 1 µM | IC50 [13, 18]: 30.4 ± 10.5 µM | IC50 [13, 19]: 30.4 µM | IC50 ([5]; Mus musculus, RAW264.7, 72 h): 30 µM | IC50 [14]: 5.3 to 74.7 µM
